Laboratory results reported in patent US20040186081A1, “Naaladase inhibitors for treating opioid tolerance” (Guilford Pharmaceuticals Inc., priority 2003, published 2004).

Target: NAALADase (Homo sapiens, UniProt Q04609)
Assay: In vitro inhibition of NAALADase activity
Format: biochemical
Settings: not given

Sequence of NAALADase (Q04609 whole entry): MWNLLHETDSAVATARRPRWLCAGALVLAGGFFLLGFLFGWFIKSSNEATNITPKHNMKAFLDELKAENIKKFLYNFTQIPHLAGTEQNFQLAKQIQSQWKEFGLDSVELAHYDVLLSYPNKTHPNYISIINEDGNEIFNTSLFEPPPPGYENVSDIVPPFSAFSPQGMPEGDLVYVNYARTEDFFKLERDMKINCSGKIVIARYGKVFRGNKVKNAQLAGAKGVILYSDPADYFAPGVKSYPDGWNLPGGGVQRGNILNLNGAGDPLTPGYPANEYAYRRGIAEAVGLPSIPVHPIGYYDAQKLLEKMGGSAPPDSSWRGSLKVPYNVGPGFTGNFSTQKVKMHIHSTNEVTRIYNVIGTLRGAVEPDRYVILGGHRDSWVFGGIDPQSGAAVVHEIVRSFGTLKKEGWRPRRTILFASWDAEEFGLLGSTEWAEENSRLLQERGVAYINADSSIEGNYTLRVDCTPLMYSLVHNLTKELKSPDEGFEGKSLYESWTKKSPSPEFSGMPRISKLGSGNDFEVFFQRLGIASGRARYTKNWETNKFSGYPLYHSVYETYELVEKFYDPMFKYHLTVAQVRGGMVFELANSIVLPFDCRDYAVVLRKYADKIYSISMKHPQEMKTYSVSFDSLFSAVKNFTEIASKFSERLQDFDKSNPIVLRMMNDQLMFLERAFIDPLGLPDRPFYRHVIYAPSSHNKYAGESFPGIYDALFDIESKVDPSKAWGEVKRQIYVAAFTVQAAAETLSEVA

First: O=C(O)c1ccc(Sc2ccccc2C(=O)O)c(C(=O)O)c1 [4-[(2-carboxyphenyl)thio]-1,3-benzenedicarboxylic acid]
Second: O=C(O)Cc1cc(C(=O)O)ccc1C(=O)O [2-carboxymethyl-1,4-benzenedicarboxylic acid]
The Ki of the first is 2.3-fold lower: 3980 nM for the first, 9000 nM for the second.

First: O=C(O)c1cc(C(=O)O)cc(P(=O)(O)O)c1 [5-phosphono-1,3-benzenedicarboxylic acid]
Second: O=C(O)c1cc(C(=O)O)cc(C(=O)NO)c1 [5-[(hydroxyamino)-carbonyl]-1,3-benzenedicarboxylic acid]
The Ki of the first is 14-fold higher: 14000 nM for the first, 1000 nM for the second.

For `O=C(Cc1cc(C(=O)O)cc(C(=O)O)c1)NO` [5-[2-(hydroxyamino)-2-oxoethyl]-1,3-benzenedicarboxylic acid], the Ki was 12000 nM.

Same assay, conditions: IC50

In the case of `O=C(NO)c1ccccc1O` [2,N-Dihydroxy-benzamide], the IC50 is reported as ≥ 100000 nM.

Same assay, conditions: read-out: IC50

Compared with `O=C(O)C(CCCS)Oc1ccccc1` (stereo not drawn) [5-mercapto-2-phenoxy-pentanoic acid], `O=C(O)C(CCCS)Oc1cccc(O)c1` (stereo not drawn) [2-(3-hydroxyphenoxy)-5-mercapto-pentanoic acid] is 1.5-fold higher in IC50: 555 nM for the first, 846 nM for the second.

Going from `O=C(O)c1ccc(-c2ccccc2)c(CC(CCCS)C(=O)O)c1` (stereo not drawn) [2-(2-carboxy-5-mercaptopentyl)-[1,1′-biphenyl]-4-carboxylic acid] to `O=C(O)c1ccccc1-c1cccc(CC(CCCS)C(=O)O)c1` (stereo not drawn) [3′-(2-carboxy-5-mercaptopentyl)-[1,1′-biphenyl]-2-carboxylic acid], the IC50 rises from 19 nM to 184 nM (9.7-fold). The first is the more potent here.

Compared with `O=C(O)c1c(CCS)cccc1Oc1ccccc1` [2-(2-mercaptoethyl)-6-phenoxy-benzoic acid], `O=C(O)c1c(CCS)cccc1OCCc1ccccc1` [2-(2-mercaptoethyl)-6-(2-phenylethoxy)-benzoic acid] is 4.3-fold lower in IC50: 1150 nM for the first, 266 nM for the second. The second is the more potent here.

First: O=C(O)c1ccc([N+](=O)[O-])c(CC(CCCS)C(=O)O)c1 (stereo not drawn) [5-carboxy-alpha-(3-mercaptopropyl)-2-nitro-benzenepropanoic acid]
Second: COc1ccc(C(=O)O)cc1CC(CCCS)C(=O)O (stereo not drawn) [5-carboxy-alpha-(3-mercaptopropyl)-2-methoxy-benzenepropanoic acid]
The IC50 of the first is 3.2-fold lower: 8.25 nM for the first, 26 nM for the second.

`COC(=O)c1cc(CC(C(=O)O)C(=O)NO)cc(C(C)(C)C)c1` (stereo not drawn) [3-tert-Butyl-5-(2-carboxy-2-hydroxycarbamoyl-ethyl)-benzoic acid methyl ester] and `CCOC(=O)c1cc(C(=O)O)cc(C(=O)NO)c1` [5-Hydroxycarbamoyl-isophthalic acid monoethyl ester] are within 1.5-fold of each other in IC50: 38600 nM for the first, 29000 nM for the second.

First: O=C(O)C(CCCS)Cc1ccccc1 (stereo not drawn) [alpha-(3-mercaptopropyl)-benzenepropanoic acid]
Second: O=C(O)c1cccc(CC(CCCS)C(=O)O)c1 (stereo not drawn) [3-carboxy-alpha-(3-mercaptopropyl)-benzenepropanoic acid]
The IC50 of the first is 130-fold higher: 2270 nM for the first, 17 nM for the second.

Compared with `O=C(CSCCCC(Cc1cc(Br)cc(C(=O)O)c1)C(=O)O)NO` (stereo not drawn) [3-Bromo-5-(2-carboxy-5-hydroxycarbamoyl-methylsulfanylpentyl)-benzoic acid], `O=C(CSCCCC(Cc1cccc(C(=O)O)c1)C(=O)O)NO` (stereo not drawn) [3-(2-Carboxy-5-hydroxycarbamoylmethyl-sulfanylpentyl)-benzoic acid] is 6.4-fold lower in IC50: 2460 nM for the first, 384 nM for the second.

Going from `O=C(O)c1cc(CC(CCCS)C(=O)O)ccc1F` (stereo not drawn) [3-carboxy-4-fluoro-alpha-(3-mercaptopropyl)-benzenepropanoic acid] to `O=C(O)c1cc(Br)cc(CC(CCCS)C(=O)O)c1` (stereo not drawn) [3-bromo-5-carboxy-alpha-(3-mercaptopropyl)-benzenepropanoic acid], the IC50 falls from 12 nM to 2.5 nM (4.8-fold). The second is the more potent here.

Compared with `COc1cc(OC)cc(OC(CCCS)C(=O)O)c1` (stereo not drawn) [2-(3,5-dimethoxyphenoxy)-5-mercapto-pentanoic acid], `CC(=O)c1cccc(OC(CCCS)C(=O)O)c1` (stereo not drawn) [2-(3-acetylphenoxy)-5-mercapto-pentanoic acid] is 5.6-fold lower in IC50: 16100 nM for the first, 2900 nM for the second. The second is the more potent here.

Compared with `O=C(O)c1cccc(-c2ccc(CS)cc2C(=O)O)c1` [4-(mercaptomethyl)-[1,1′-biphenyl]-2,3′-dicarboxylic acid], `O=C(CCCSCc1ccc(-c2cccc(C(=O)O)c2)c(C(=O)O)c1)NO` [4-(3-Hydroxycarbamoyl-propylsulfanylmethyl)-biphenyl-2,3′-dicarboxylic acid] is 140-fold higher in IC50: 76 nM for the first, 10800 nM for the second.

Compared with `O=C(O)c1ccc(OC(CCCS)C(=O)O)cc1` (stereo not drawn) [4-(1-carboxy-4-mercaptobutoxy)-benzoic acid], `CC(=O)c1ccc(OC(CCCS)C(=O)O)cc1` (stereo not drawn) [2-(4-acetylphenoxy)-5-mercaptopentanoic acid] is 6.4-fold lower in IC50: 192 nM for the first, 29.8 nM for the second. The second is the more potent here.

First: O=C(O)C(CCCS)Sc1ccccc1 (stereo not drawn) [5-mercapto-2-(phenylthio)-pentanoic acid]
Second: N#Cc1ccccc1CC(CCCS)C(=O)O (stereo not drawn) [2-cyano-alpha-(3-mercaptopropyl)-benzenepropanoic acid]
The IC50 of the first is 1.5-fold lower: 297 nM for the first, 450 nM for the second. The first is the more potent here.

Compared with `N#Cc1ccc(COc2ccc(C(=O)NO)cc2)cc1` [4-(4-Cyano-benzyloxy)-N-hydroxy-benzamide], `O=C(O)c1ccc(COc2ccc(CCS)c(C(=O)O)c2)cc1` [5-[(4-carboxyphenyl)methoxy]-2-(2-mercaptoethyl)-benzoic acid] is 200-fold lower in IC50: 14200 nM for the first, 71.5 nM for the second.

Compared with `O=C(O)c1ccc(COc2cccc(CCS)c2C(=O)O)c(Br)c1` [2-[(2-bromo-4-carboxyphenyl)methoxy]-6-(2-mercaptoethyl)-benzoic acid], `CC(C)(C)c1cc(COc2cccc(CCS)c2C(=O)O)cc(C(=O)O)c1` [2-[[3-carboxy-5-(1,1-dimethylethyl)phenyl]methoxy]-6-(2-mercaptoethyl)-benzoic acid] is 8.9-fold higher in IC50: 2.65 nM for the first, 23.7 nM for the second.

First: O=C(CCCOc1cccc(-c2cccc(C(=O)O)c2)c1C(=O)O)NO [3-(3-Hydroxycarbamoyl-propoxy)-biphenyl-2,3′-dicarboxylic acid]
Second: O=C(CSCCc1cccc(-c2cccc(C(=O)O)c2)c1C(=O)O)NO [3-(2-1-Hydroxycarbamoyl-methylsulfanyl-ethyl)-biphenyl-2,3′-dicarboxylic acid]
The IC50 of the first is 36-fold higher: 9100 nM for the first, 255 nM for the second.

`O=C(CSCCCCC(Cc1cccc(C(=O)O)c1)C(=O)O)NO` (stereo not drawn) [3-(2-Carboxy-6-hydroxycarbamoylmethyl-sulfanylhexyl)-benzoic acid] and `O=C(CSCCC(Cc1cccc(C(=O)O)c1)C(=O)O)NO` (stereo not drawn) [3-(2-Carboxy-4-hydroxycarbamoylmethyl-sulfanylbutyl)-benzoic acid] are within 1.5-fold of each other in IC50: 3330 nM for the first, 4900 nM for the second.

First: O=C(CSCc1ccc(OCc2ccc(C(=O)O)cc2)c(C(=O)O)c1)NO
Second: O=C(CSCCCC(Cc1cc(OCc2ccccc2)cc(C(=O)O)c1)C(=O)O)NO (stereo not drawn) [3-Benzyloxy-5-(2-carboxy-5-hydroxycarbamoylmethyl-sulfanylpentyl)-benzoic acid]
The IC50 of the first is 1.9-fold lower: 1330 nM for the first, 2570 nM for the second.

`O=C(O)c1cc(CC(CCCS)C(=O)O)cc([N+](=O)[O-])c1` (stereo not drawn) [3-carboxy-alpha-(3-mercaptopropyl)-5-nitro-benzenepropanoic acid] and `O=C(O)c1cc(CC(CCCS)C(=O)O)cc(C(=O)O)c1` (stereo not drawn) [5-(2-carboxy-5-mercaptopentyl)-1,3-benzenedicarboxylic acid] are within 1.5-fold of each other in IC50: 3 nM for the first, 2.55 nM for the second.

First: O=C(O)c1cccc(CCS)c1 [3-(2-mercaptoethyl)-benzoic acid]
Second: O=C(O)c1ccccc1CCS [2-(2-mercaptoethyl)-benzoic acid]
The IC50 of the first is 9.9-fold higher: 6050 nM for the first, 613 nM for the second. The second is the more potent here.

First: CCC(SCCC(Cc1cccc(C(=O)O)c1)C(=O)O)C(=O)NO (stereo not drawn) [3-[2-Carboxy-4-(1-hydroxycarbamoyl-propylsulfanyl)-butyl]-benzoic acid]
Second: CCCC(SCCCC(Cc1cccc(C(=O)O)c1)C(=O)O)C(=O)NO (stereo not drawn) [3-[2-Carboxy-5-(1-hydroxycarbamoyl-butylsulfanyl)-pentyl]-benzoic acid]
The IC50 of the first is 12-fold higher: 19000 nM for the first, 1530 nM for the second. The second is the more potent here.

First: O=C(O)c1ccc(Cl)c(OC(CCCS)C(=O)O)c1 (stereo not drawn) [3-(1-carboxy-4-mercaptobutoxy)-4-chloro-benzoic acid]
Second: O=C(O)c1ccc(F)c(OC(CCCS)C(=O)O)c1 (stereo not drawn) [3-(1-carboxy-4-mercaptobutoxy)-4-fluoro-benzoic acid]
The IC50 of the first is 3.4-fold lower: 118 nM for the first, 400 nM for the second. The first is the more potent here.

Compared with `CN(O)C(=O)CSCCCC(Cc1cccc(C(=O)O)c1)C(=O)O` (stereo not drawn) [3-{2-Carboxy-5-[(hydroxy-methyl-carbamoyl)-methylsulfanyl]-pentyl}-benzoic acid], `O=C(CCCC(Cc1cccc(C(=O)O)c1)C(=O)O)NO` (stereo not drawn) [3-(2-Carboxy-5-hydroxycarbamoyl-pentyl)-benzoic acid] is 220-fold lower in IC50: 14900 nM for the first, 66.3 nM for the second. The second is the more potent here.

First: O=C(O)c1cccc(CC(CCCSC(C(=O)NO)c2ccccc2)C(=O)O)c1 (stereo not drawn) [3-[2-Carboxy-5-(hydroxycarbamoyl-phenyl-methylsulfanyl)-pentyl]-benzoic acid]
Second: O=C(CSCCCC(Cc1cc(C(=O)O)ccc1Cl)C(=O)O)NO (stereo not drawn) [3-(2-Carboxy-5-hydroxycarbamoylmethyl-sulfanylpentyl)-4-chloro-benzoic acid]
The IC50 of the first is 14-fold lower: 1120 nM for the first, 16000 nM for the second.

`COC(=O)c1cc(C(=O)NO)ccc1OCc1ccccc1` [6-Benzyloxy-N-hydroxy-isophthalamic acid methyl ester] and `COC(=O)c1ccccc1OCC(=O)NO` [2-Hydroxycarbamoylmethoxy-benzoic acid methyl ester] cannot be ordered by IC50: ≥ 100000 nM for the first, ≥ 100000 nM for the second.

`O=C(O)Cc1ccc(OC(CCCS)C(=O)O)cc1` (stereo not drawn) [4-(1-carboxy-4-mercaptobutoxy)-benzeneacetic acid] and `O=C(O)Cc1cccc(OC(CCCS)C(=O)O)c1` (stereo not drawn) [3-(1-carboxy-4-mercaptobutoxy)-benzeneacetic acid] are within 1.5-fold of each other in IC50: 82 nM for the first, 64 nM for the second.

Compared with `O=C(O)c1ccc(-c2cccc(CCS)c2C(=O)O)cc1` [3-(2-mercaptoethyl)-[1,1′-biphenyl]-2,4′-dicarboxylic acid], `O=C(O)COc1cccc(CCS)c1C(=O)O` [2-(carboxymethoxy)-6-(2-mercaptoethyl)-benzoic acid] is 50-fold higher in IC50: 4.28 nM for the first, 215 nM for the second.

First: O=C(O)c1cc(CS)ccc1OCCc1ccccc1 [5-(mercaptomethyl)-2-(2-phenylethoxy)-benzoic acid]
Second: NC(=O)c1ccccc1CC(CCCS)C(=O)O (stereo not drawn) [2-(aminocarbonyl)-alpha-(3-mercaptopropyl)-benzenepropanoic acid]
The IC50 of the first is 21-fold lower: 188 nM for the first, 3950 nM for the second. The first is the more potent here.

Compared with `CC(=O)Nc1ccc(CC(CCCS)C(=O)O)cc1` (stereo not drawn) [4-(acetylamino)-alpha-(3-mercaptopropyl)-benzenepropanoic acid], `O=C(COc1cccc(C(=O)O)c1)NO` [3-Hydroxycarbamoylmethoxy-benzoic acid] is 19-fold higher in IC50: 2200 nM for the first, 40800 nM for the second.

`O=C(NO)c1ccc(C(=O)c2ccccc2C(=O)NO)cc1` was tested, and the IC50 was ≥ 100000 nM.
